Results as given in US20210386068A1, “COMPOSITIONS COMPRISING PYRIDINE CARBOXYLATE HERBICIDES AND VERY LONG CHAIN FATTY ACID (VLCFA) SYNTHESIS INHIBITOR HERBICIDES” (priority 2018, published 2021).
Values joined by “and” are separate entries in the source; they are usually repeats but may differ in a detail not shown here. Equal values may be shown once.

How the values were obtained:
[1] = tested on: Polygonum convolvulus (wild buckwheat, POLCO); assay: Greenhouse postemergence herbicidal effect, visual injury 20-22 d after spraying, wild buckwheat (POLCO); assay type: in vivo
Excerpt: (§1) Seeds of the desired test plant species were planted in a 90:10% v/v (volume/volume) mixture of PRO-MIX® BX (Premier Tech Horticulture, Quakertown, Pa., USA) and PROFILE® GREENS GRADE™ (Profile Products LLC, Buffalo Grove, Ill., USA) planting mixture, which typically has a pH of 5.2 to 6.2 and an organic matter content of at least 50 percent, in plastic pots with a surface area of 103.2 square centimeters (cm^2). In some aspects, to ensure good germination and healthy plants, a fungicide treatment and/or other chemical or physical treatment was applied. The plants were grown for 7-36 days (d) in a greenhouse with an approximate 14-hour (h) photoperiod which was maintained at about 23° C. during the day and 22° C. during the night. Nutrients and water were added on a regular basis and supplemental lighting was provided with overhead metal halide 1000-Watt lamps as necessary. The plants were employed for testing when they reached the second or third true leaf stage.
(§2) Emulsifiable concentrates of each of each pyridine carboxylate herbicide (Compound A or Compound B) were prepared at 100 grams acid equivalent per liter (g ae/L). The emulsifiable concentrates also included a safener, cloquintocet-mexyl, at 120 grams active ingredient per liter (g ai/L). An aliquot of each emulsifiable concentrate was placed in a 25 mL glass vial and diluted with an aqueous mixture of 1.25% (v/v) ACTIROB® B esterified rapeseed oil (Bayer Crop Science, Research Triangle Park, N.C., USA) or MSO® Concentrate with LECI-TECH® methylated soybean oil (Loveland Products, Loveland, Colo., USA) to obtain concentrated stock solutions at the highest application rate for each herbicide, based upon a 12 milliliter (mL) application volume at a rate of 187 liters per hectare (L/ha). The concentrated stock solutions were further diluted with an aqueous mixture of 1.25% v/v ACTIROB® B or MSO® Concentrate with LECI-TECH® to obtain stock solutions at reduced application rates for each herbicide. Spray solutions of the herbicide combinations (Compound A or Compound B plus VLCFA synthesis inhibitor herbicide) were prepared by adding weighed amounts or aliquots of the VLCFA synthesis inhibitor herbicide to the stock solutions of Compound A or Compound B to form 12-mL spray solutions in two-way combinations.
(§3) The spray solutions were applied to the plant material with an overhead Mandel track sprayer equipped with 8002E nozzles calibrated to deliver 187 L/ha over an application area of 0.503 square meters (m^2) at a spray height of 18 inches ([…] (cm)) above the average plant canopy. Control plants were sprayed in the same manner with the solvent blank. All pyridine carboxylate herbicide (component a) application rates are given as “g ae/ha” and all VLCFA synthesis inhibitor herbicide (component b) application rates are given as “g ai/ha.”
(§4) The treated plants and control plants were placed in a greenhouse as described above and watered by sub-irrigation to prevent wash-off of the test compounds. After 20-22 d, the condition of the test plants as compared with that of the control plants was determined visually and scored on a scale of 0 to 100 percent where 0 corresponds to no injury and 100 corresponds to complete kill.

[2] = tested on: Sinapis arvensis (wild mustard, SINAR); assay: Greenhouse postemergence herbicidal effect, visual injury 20-22 d after spraying, wild mustard (SINAR); assay type: in vivo; conditions: for % visual injury Obs: SINAR
Excerpt: as §1, §2, §3, §4

[3] = tested on: Salsola kali (Russian thistle, SASKR); assay: Greenhouse postemergence herbicidal effect, visual injury 20-22 d after spraying, Russian thistle (SASKR); assay type: in vivo; conditions: for % visual injury Obs: SASKR
Excerpt: as §1, §2, §3, §4

[4] = tested on: Kochia scoparia (kochia, KCHSC); assay: Greenhouse postemergence herbicidal effect, visual injury 20-22 d after spraying, kochia (KCHSC); assay type: in vivo; conditions: for % visual injury Obs: KCHSC
Excerpt: as §1, §2, §3, §4

[5] = tested on: Chenopodium album L. (common lambsquarters, CHEAL); assay: Greenhouse postemergence herbicidal effect, visual injury 20-22 d after spraying, common lambsquarters (CHEAL); assay type: in vivo
Excerpt: as §1, §2, §3, §4

[6] = tested on: Triticum aestivum (spring wheat, TRZAS); assay: Greenhouse postemergence crop phytotoxicity, visual injury 20-22 d after spraying, spring wheat (TRZAS); assay type: in vivo; conditions: for % visual injury Obs: TRZAS
Excerpt: as §1, §2, §3, §4

[7] = tested on: Hordeum vulgare (spring barley, HORVS); assay: Greenhouse postemergence crop phytotoxicity, visual injury 20-22 d after spraying, spring barley (HORVS); assay type: in vivo; conditions: for % visual injury Obs: HORVS
Excerpt: as §1, §2, §3, §4

[8] = tested on: Viola tricolor (wild pansy, VIOTR); assay: Greenhouse postemergence herbicidal effect, visual injury 20-22 d after spraying, wild pansy (VIOTR); assay type: in vivo; conditions: for % visual injury Obs: VIOTR
Excerpt: as §1, §2, §3, §4

[9] = tested on: Ipomoea hederacea (ivyleaf morningglory, IPOHE); assay: Greenhouse postemergence herbicidal effect, visual injury 20-22 d after spraying, ivyleaf morningglory (IPOHE); assay type: in vivo
Excerpt: as §1
(§5) Emulsifiable concentrates of each of each pyridine carboxylate herbicide (Compound A or Compound B) were prepared at 100 grams acid equivalent per liter (g ae/L). The emulsifiable concentrates also included a safener, cloquintocet-mexyl, at 120 grams active ingredient per liter (g ai/L). […]
as §4

[10] = tested on: Helianthus annuus (common sunflower, HELAN); assay: Greenhouse postemergence herbicidal effect, visual injury 20-22 d after spraying, common sunflower (HELAN); assay type: in vivo
Excerpt: as §1, §5, §4

[11] = tested on: Matricaria discoidea (pineapple weed, MATMT); assay: Greenhouse postemergence herbicidal effect, visual injury 20-22 d after spraying, pineapple weed (MATMT); assay type: in vivo
Excerpt: as §1, §2, §3, §4

[12] = tested on: Lamium purpureum (purple deadnettle, LAMPU); assay: Greenhouse postemergence herbicidal effect, visual injury 20-22 d after spraying, purple deadnettle (LAMPU); assay type: in vivo
Excerpt: as §1, §2, §3, §4

[13] = tested on: Stellaria media (common chickweed, STEME); assay: Greenhouse postemergence herbicidal effect, visual injury 20-22 d after spraying, common chickweed (STEME); assay type: in vivo
Excerpt: as §1, §2, §3, §4

[14] = tested on: Anthemis arvensis (corn chamomile, ANTAR); assay: Greenhouse postemergence herbicidal effect, visual injury 20-22 d after spraying, corn chamomile (ANTAR); assay type: in vivo
Excerpt: as §1, §2, §3, §4

[15] = tested on: Cyanus segetum (cornflower, CENCY); assay: Greenhouse postemergence herbicidal effect, visual injury 20-22 d after spraying, cornflower (CENCY); assay type: in vivo
Excerpt: as §1, §2, §3, §4

winter wheat (TRZAW) = assay: Greenhouse postemergence crop phytotoxicity, visual injury 20-22 d after spraying, winter wheat (TRZAW); assay type: in vivo, Triticum aestivum
Excerpt: as §1, §2, §3, §4

N#CCOC(=O)c1nc(-c2ccc3cc[nH]c3c2F)c(F)c(N)c1Cl [Compound A, cyanomethyl 4-amino-3-chloro-5-fluoro-6-(7-fluoro-1H-indol-6-yl)pyridine-2-carboxylate]
% visual injury POLCO Obs ([1]; Compound A 7.5 g/ha): 65% | % visual injury POLCO Obs ([1]; Compound A 10 g/ha): 78% | % visual injury POLCO Obs ([1]; Compound A 15 g/ha): 85% | % visual injury SINAR Obs ([2]; Compound A 7.5 g/ha): 88% | % visual injury SINAR Obs ([2]; Compound A 10 g/ha): 91% | % visual injury SINAR Obs ([2]; Compound A 15 g/ha): 91% | % visual injury Obs ([2]; Compound A 7.5 g/ha alone): 88% and 85% and 83% | % visual injury Obs ([2]; Compound A 10 g/ha alone): 90% and 92% and 88% | % visual injury SASKR Obs ([3]; Compound A 7.5 g/ha): 50% | % visual injury SASKR Obs ([3]; Compound A 10 g/ha): 60% | % visual injury SASKR Obs ([3]; Compound A 15 g/ha): 63% | % visual injury Obs ([3]; Compound A 7.5 g/ha alone): 60% and 45% and 38% | % visual injury Obs ([3]; Compound A 10 g/ha alone): 63% and 60% | % visual injury KCHSC Obs ([4]; Compound A 7.5 g/ha): 63% | % visual injury KCHSC Obs ([4]; Compound A 10 g/ha): 65% | % visual injury KCHSC Obs ([4]; Compound A 15 g/ha): 63% | % visual injury Obs ([4]; Compound A 7.5 g/ha alone): 63% and 50% and 70% | % visual injury Obs ([4]; Compound A 10 g/ha alone): 63% and 58% and 55% and 70% | % visual injury Obs ([5]; Compound A 7.5 g/ha alone): 88% and 70% and 60% and 75% | % visual injury Obs ([5]; Compound A 10 g/ha alone): 93% and 83% and 90% and 80% | % visual injury TRZAS Obs ([6]; Compound A 7.5 g/ha): 0% | % visual injury TRZAS Obs ([6]; Compound A 10 g/ha): 0% | % visual injury TRZAS Obs ([6]; Compound A 15 g/ha): 0% | % visual injury Obs ([6]; Compound A 7.5 g/ha alone): 0% | % visual injury Obs ([6]; Compound A 10 g/ha alone): 0% | % visual injury HORVS Obs ([7]; Compound A 7.5 g/ha): 0% | % visual injury HORVS Obs ([7]; Compound A 10 g/ha): 0% | % visual injury HORVS Obs ([7]; Compound A 15 g/ha): 0% | % visual injury Obs ([7]; Compound A 7.5 g/ha alone): 0% and 8% | % visual injury Obs ([7]; Compound A 10 g/ha alone): 0% | % visual injury VIOTR Obs ([8]; Compound A 7.5 g/ha): 13% | % visual injury VIOTR Obs ([8]; Compound A 10 g/ha): 15% | % visual injury VIOTR Obs ([8]; Compound A 15 g/ha): 15% | % visual injury Obs ([8]; Compound A 7.5 g/ha alone): 3% | % visual injury Obs ([8]; Compound A 10 g/ha alone): 3% | % visual injury Obs ([9]; Compound A 7.5 g/ha alone): 5% | % visual injury Obs ([9]; Compound A 10 g/ha alone): 0% | % visual injury Obs ([10]; Compound A 7.5 g/ha alone): 83% | % visual injury Obs ([10]; Compound A 10 g/ha alone): 88% | % visual injury MATMT Obs ([11]; Compound A 7.5 g/ha): 20% | % visual injury MATMT Obs ([11]; Compound A 10 g/ha): 20% | % visual injury MATMT Obs ([11]; Compound A 15 g/ha): 63% | % visual injury LAMPU Obs ([12]; Compound A 7.5 g/ha): 68% | % visual injury LAMPU Obs ([12]; Compound A 10 g/ha): 73% | % visual injury LAMPU Obs ([12]; Compound A 15 g/ha): 73% | % visual injury STEME Obs ([13]; Compound A 7.5 g/ha): 85% | % visual injury STEME Obs ([13]; Compound A 10 g/ha): 88% | % visual injury STEME Obs ([13]; Compound A 15 g/ha): 89% | % visual injury ANTAR Obs ([14]; Compound A 7.5 g/ha): 68% | % visual injury ANTAR Obs ([14]; Compound A 10 g/ha): 70% | % visual injury ANTAR Obs ([14]; Compound A 15 g/ha): 88% | % visual injury CENCY Obs ([15]; Compound A 7.5 g/ha): 75% | % visual injury CENCY Obs ([15]; Compound A 10 g/ha): 78% | % visual injury CENCY Obs ([15]; Compound A 15 g/ha): 80% | % visual injury TRZAW Obs (winter wheat (TRZAW); Compound A 7.5 g/ha): 0% | % visual injury TRZAW Obs (winter wheat (TRZAW); Compound A 10 g/ha): 0% | % visual injury TRZAW Obs (winter wheat (TRZAW); Compound A 15 g/ha): 0%
